The test has as its system B6C3F1 mice, colon carcinoma 38 s.c., T/C. Kind of test: NCI In Vivo Anticancer Drug Screen. Data for tumor model Colon Carcinoma 38 (subcutaneous) in B6C3F1 mice. To be noted: endpoint: median tumor weight (est.), higher = larger tumour. The protocol: The antitumor activity of compounds was measured in mice bearing transplantable tumors. Survival or tumor size were measured and the results are expressed as the measurement made in the treated group (T) divided by the measurement made in the vehicle treated control group (C). The tumor model used in this assay is Colon Carcinoma 38 (subcutaneous) in B6C3F1 mice

[1] abbreviates: dose: 12.5 mg/kg/injection, schedule: Q07DX002 (ip), vehicle: saline with Tween-80.
The mark [2] stands for this setting: dose: 25.0 mg/kg/injection, schedule: Q07DX002 (ip), vehicle: saline with Tween-80.
The mark [3] stands for this setting: dose: 200.0 mg/kg/injection, schedule: Q07DX002 (ip), vehicle: saline with Tween-80.
The mark [4] stands for this setting: dose: 4.0 mg/kg/injection, schedule: Q07DX002 (ip), vehicle: saline.
Setting [5] is: dose: 8.0 mg/kg/injection, schedule: Q07DX002 (ip), vehicle: saline.
Setting [6] is: dose: 16.0 mg/kg/injection, schedule: Q07DX002 (ip), vehicle: saline.
Where [7] appears, read: dose: 32.0 mg/kg/injection, schedule: Q07DX002 (ip), vehicle: saline.
Setting [8] is: dose: 50.0 mg/kg/injection, schedule: Q07DX002 (ip), vehicle: saline with Tween-80.
The mark [9] stands for this setting: dose: 25.0 mg/kg/injection, schedule: Q07DX002 (ip), vehicle: Klucel (hydroxypropylcellulose) (HPC).
Where [10] appears, read: dose: 100.0 mg/kg/injection, schedule: Q07DX002 (ip), vehicle: Klucel (hydroxypropylcellulose) (HPC).
[11] abbreviates: dose: 100.0 mg/kg/injection, schedule: Q07DX002 (ip), vehicle: saline with Tween-80.

Consider 21 molecules from PubChem BioAssay AID214 (DTP/NCI, 2004).

Records with an inconclusive call do not appear.

For the molecule `Cc1c2ccccc2c(C)c2c1cc(C(=O)O)c1ccccc12`, the T/C by setting is: (dose: 12.5 mg/kg/injection, schedule: Q07DX002 (ip), vehicle: sodium bicarbonate) 66 % of control; (dose: 25.0 mg/kg/injection, schedule: Q07DX002 (ip), vehicle: sodium bicarbonate) 98 % of control; (dose: 50.0 mg/kg/injection, schedule: Q07DX002 (ip), vehicle: sodium bicarbonate) 74 % of control; (dose: 62.5 mg/kg/injection, schedule: Q07DX002 (ip), vehicle: sodium bicarbonate) 112 % of control; (dose: 100.0 mg/kg/injection, schedule: Q07DX002 (ip), vehicle: sodium bicarbonate) 107 % of control; (dose: 125.0 mg/kg/injection, schedule: Q07DX002 (ip), vehicle: sodium bicarbonate) 106 % of control. Also, the T/C is 108 % of control (dose: 200.0 mg/kg/injection, schedule: Q07DX002 (ip), vehicle: sodium bicarbonate); 76 % of control (dose: 250.0 mg/kg/injection, schedule: Q07DX002 (ip), vehicle: sodium bicarbonate); 26 % of control (dose: 500.0 mg/kg/injection, schedule: Q07DX002 (ip), vehicle: sodium bicarbonate); 23 % of control (dose: 1000.0 mg/kg/injection, schedule: Q07DX002 (ip), vehicle: sodium bicarbonate).
For `O=c1c(O)c(-c2cc(O)c(O)c(O)c2)oc2cc(O)cc(O)c12`, the T/C (dose: 600.0 mg/kg/injection, schedule: Q07DX002 (ip), vehicle: saline with Tween-80) was 95 % of control.
Turning to `O=C(CCCCCCC(=O)ON1C(=O)CCC1=O)ON1C(=O)CCC1=O`, the T/C was 74 % of control under setting [1], 69 % of control under setting [2] and 108 % of control under setting [3].
Turning to `Cc1c(N)nc(C(CC(N)=O)NCC(N)C(N)=O)nc1C(=O)NC(C(=O)NC(C)C(O)CC(=O)NC(C(=O)NC(OC1OC(C)C(N)C(O)C1O)C(O)c1nc(-c2nc(C(=O)NCCCC(N)CC(=O)NCCCNCCCCN)cs2)cs1)C(C)O)C(OC1OC(CO)C(O)C(O)C1OC1OC(CO)C(O)C(OC(N)=O)C1O)c1cnc[nH]1` (stereo unspecified), the T/C under setting [4] was 36 % of control, the T/C under setting [5] is 15 % of control, the T/C under setting [6] is 8 % of control and the T/C under setting [7] was 1 % of control.
In the case of `O=C1N[C@@H]2C(=C[C@H](O)[C@@H](O)[C@H]2O)c2cc3c(c(O)c21)OCO3`, the T/C is 123 % of control (dose: 1.25 mg/kg/injection, schedule: Q07DX002 (ip), vehicle: saline with Tween-80); 60 % of control (dose: 5.0 mg/kg/injection, schedule: Q07DX002 (ip), vehicle: saline with Tween-80); 69 % of control (dose: 10.0 mg/kg/injection, schedule: Q07DX002 (ip), vehicle: saline with Tween-80); 43 % of control (dose: 20.0 mg/kg/injection, schedule: Q07DX002 (ip), vehicle: saline with Tween-80).
`C[CH2][Sn]([CH2]C)([CH2]C(=O)OC)[CH2]C(=O)OC`: the T/C reads like this: (dose: 1.56 mg/kg/injection, schedule: Q07DX002 (ip), vehicle: saline with Tween-80) 51 % of control; (dose: 3.12 mg/kg/injection, schedule: Q07DX002 (ip), vehicle: saline with Tween-80) 113 % of control; (dose: 6.25 mg/kg/injection, schedule: Q07DX002 (ip), vehicle: saline with Tween-80) 109 % of control; under setting [1], 65 % of control; under setting [2], 74 % of control.
For `CCCCNc1ccc2nnc(C)n2n1`, the T/C by setting is: (dose: 50.0 mg/kg/injection, schedule: Q07DX002 (ip), vehicle: DMSO) 98 % of control; (dose: 200.0 mg/kg/injection, schedule: Q07DX002 (ip), vehicle: DMSO) 114 % of control.
Consider `Nc1ccc2ccc(NS(=O)(=O)N3CCCCC3)cc2c1`, for which the T/C by setting is: under setting [8], 108 % of control; under setting [3], 39 % of control; (dose: 400.0 mg/kg/injection, schedule: Q07DX002 (ip), vehicle: saline with Tween-80) 15 % of control.
`OCCO`: the T/C is 181 % of control (dose: 1.0 % in 0.5 ml injection vol, schedule: Q07DX002 (ip), vehicle: water) and 160 % of control (dose: 2.0 % in 0.5 ml injection vol, schedule: Q07DX002 (ip), vehicle: water).
Regarding `O=NN(CCF)C(=O)NC1CCCCC1`, the T/C is, setting by setting: (dose: 6.25 mg/kg/injection, schedule: Q07DX002 (ip), vehicle: Klucel (hydroxypropylcellulose) (HPC)) 115 % of control; under setting [9], 77 % of control.
On to `CC1(C)OCC2OC=CC(=O)C2O1` (stereo unspecified), for which the T/C under setting [3] is 222 % of control.
As for `BrCCC1(CCBr)CCCCC1`, the T/C (dose: 100.0 mg/kg/injection, schedule: Q07DX002 (ip), vehicle: water) is 112 % of control; the T/C (dose: 200.0 mg/kg/injection, schedule: Q07DX002 (ip), vehicle: water) is 177 % of control; the T/C (dose: 400.0 mg/kg/injection, schedule: Q07DX002 (ip), vehicle: water) is 95 % of control; the T/C (dose: 800.0 mg/kg/injection, schedule: Q07DX002 (ip), vehicle: water) is 117 % of control; the T/C (dose: 1600.0 mg/kg/injection, schedule: Q07DX002 (ip), vehicle: water) is 90 % of control.
Turning to `CC1c2ccccc2CC(CCN(C)C)c2ccccc21` (stereo unspecified), the T/C under setting [1] is 164 % of control, the T/C under setting [2] is 84 % of control, the T/C under setting [8] is 108 % of control and the T/C under setting [3] was 69 % of control.
Regarding `O=C1C2CC(Cl)C(SSC3CC4C(=O)N(SC(Cl)(Cl)C(Cl)Cl)C(=O)C4CC3Cl)CC2C(=O)N1SC(Cl)(Cl)C(Cl)Cl` (stereo unspecified), the T/C under setting [9] is 91 % of control; the T/C (dose: 50.0 mg/kg/injection, schedule: Q07DX002 (ip), vehicle: Klucel (hydroxypropylcellulose) (HPC)) was 66 % of control; the T/C under setting [10] was 74 % of control.
Turning to `COc1ccccc1CC(=O)O`, the T/C is 78 % of control (dose: 75.0 mg/kg/injection, schedule: Q07DX002 (ip), vehicle: saline with Tween-80); 107 % of control (dose: 150.0 mg/kg/injection, schedule: Q07DX002 (ip), vehicle: saline with Tween-80); 98 % of control (dose: 300.0 mg/kg/injection, schedule: Q07DX002 (ip), vehicle: saline with Tween-80).
Consider `Cc1ccc2nc(-c3ccc4nc(-c5ccc(N=Nc6ccc(-c7nc8ccc(-c9nc%10ccc(C)c(S(=O)(=O)O)c%10s9)cc8s7)cc6)cc5)sc4c3)sc2c1S(=O)(=O)O`, for which the T/C runs as follows: (dose: 50.0 mg/kg/injection, schedule: Q07DX002 (ip), vehicle: saline) 72 % of control; (dose: 100.0 mg/kg/injection, schedule: Q07DX002 (ip), vehicle: saline) 101 % of control; (dose: 200.0 mg/kg/injection, schedule: Q07DX002 (ip), vehicle: saline) 84 % of control; (dose: 400.0 mg/kg/injection, schedule: Q07DX002 (ip), vehicle: saline) 82 % of control.
`CSc1ncc2ncn(C3OC(CO)C(O)C3O)c2n1` (stereo unspecified): the T/C under setting [10] is 120 % of control; the T/C (dose: 200.0 mg/kg/injection, schedule: Q07DX002 (ip), vehicle: Klucel (hydroxypropylcellulose) (HPC)) was 78 % of control; the T/C (dose: 400.0 mg/kg/injection, schedule: Q07DX002 (ip), vehicle: Klucel (hydroxypropylcellulose) (HPC)) is 120 % of control.
`CN(C)/N=N/c1nc[nH]c1C(N)=O`: the T/C (dose: 90.0 mg/kg/injection, schedule: Q01DX006 (ip), vehicle: carboxymethylcellulose (CMC)) was 47 % of control.
Consider `Nc1ncn(C2OC(CO)C(O)C2O)c(=O)n1` (stereo unspecified), for which the T/C is 60 % of control under setting [4]; 82 % of control under setting [5]; 33 % of control under setting [6]; 6 % of control under setting [7]; 2 % of control (dose: 64.0 mg/kg/injection, schedule: Q07DX002 (ip), vehicle: saline).
`O=[N+]([O-])c1ccc(N2CCOCC2)c2c1no[n+]2[O-]`: the T/C is, setting by setting: under setting [8], 165 % of control; under setting [11], 98 % of control; under setting [3], 103 % of control.
The corresponding values for `ClCc1ccc2ccccc2n1` are 93 % of control, 86 % of control and 89 % of control.
